Measured values published in the OligoGym collection.
Where “and” joins values, the source holds several entries; their conditions need not be identical. Identical values can stand only once. After the bases stand the sugars from the 5' end (letter, count) and the backbone: PS all phosphorothioate, else s phosphorothioate and o phosphodiester by linkage. Methylation of C is not given here. e = 2'-O-(2-methoxyethyl) (MOE); d = 2'-deoxy (DNA)

Target: DGAT2
Conditions: ASO

Sequence	target mRNA inhibition (HepG2, 2.5 µM)	target mRNA inhibition (HepG2, 10 µM)	target mRNA inhibition (HepG2, 0.12 µM)	target mRNA inhibition (HepG2, 20 µM)
TCCTTTGAAATCCAATGCAC (sugars e5 d10 e5, PS)	75% and 63%	87% and 77%	–	–
TCTCACATGCCTGAGGGCAG (sugars e5 d10 e5, PS)	70%	82%	–	–
TCTGCGCGATTCACTGAGGA (sugars e5 d10 e5, PS)	64%	84%	–	–
TGACCTTGGGATAGTCCCTC (sugars e5 d10 e5, PS)	93%	89%	–	–
TGAGCTCTCAAGTCTTCCTC (sugars e5 d10 e5, PS)	55%	89%	–	–
TGCACCATAATCTGCACAGG (sugars e5 d10 e5, PS)	75% and 71%	80% and 91%	–	–
TGCAGCCTGGACAAGTCCTG (sugars e5 d10 e5, PS)	–	–	67%	–
TGCCAATGCCTAGGTCA (sugars e3 d10 e4, PS)	82% and 74%	70% and 89%	–	–
TGCCCTTGCTGTAGGACCCA (sugars e5 d10 e5, PS)	92% and 79%	88% and 95%	–	–
TGCTGAGCTCATGAGAAGCT (sugars e5 d10 e5, PS)	75% and 57%	92% and 83%	–	–
TGCTGGATCCAGTGCCCCAT (sugars e5 d10 e5, PS)	–	–	44%	–
TGGACAAGTCATCTTCCAGC (sugars e5 d10 e5, PS)	52%	74%	–	–
TGGACAAGTCCTGCCCATCT (sugars e2 d13 e5, PS)	–	–	51%	–
TGGACAAGTCCTGCCCATCT (sugars e3 d14 e3, PS)	–	–	69%	–
TGGAGCTCAGAGACTCAGCC (sugars e5 d10 e5, PS)	19%	70%	77%	46%
TGGATACTCAGAAGAGCAGT (sugars e5 d10 e5, PS)	–	–	37%	–
TGGCTGGGAGGAGTCCAGCA (sugars e5 d10 e5, PS)	–	–	10%	–
TGGGAACAGCAGCATCAGCA (sugars e5 d10 e5, PS)	65%	80%	–	–
TGGTATCCAAAGATATAGTT (sugars e5 d10 e5, PS)	–	–	42%	–
TGGTCAGCAGGTTGTGTGTC (sugars e3 d14 e3, PS)	–	–	57%	–
TGGTCTTGTGCTTGTCGAAG (sugars e5 d10 e5, PS)	–	–	41%	–
TGGTGATGGGCTTGGAGTAG (sugars e5 d10 e5, PS)	–	–	28%	–

Sequence	target mRNA inhibition (HepG2, 2.5 µM)	target mRNA inhibition (HepG2, 10 µM)	target mRNA inhibition (HepG2, 0.12 µM)	target mRNA inhibition (HepG2, 20 µM)
TGTACACTTCATTCTCTCCA (sugars e5 d10 e5, PS)	41%	87%	–	–
TGTCCTAGTGCCCCAGGGAG (sugars e5 d10 e5, PS)	48%	79%	–	–
TGTCTTCACCAGCTGGATGG (sugars e5 d10 e5, PS)	–	–	55%	–
TGTGCTCTGTGGGCTCCTCC (sugars e5 d10 e5, PS)	66%	85%	–	–
TGTGCTGCATCCATGTCATC (sugars e5 d10 e5, PS)	–	–	36%	–
TGTGTCTTCACCAGCTGGAT (sugars e5 d10 e5, PS)	–	–	55%	–
TTATCCTTGAGGGTCTCATA (sugars e5 d10 e5, PS)	–	–	45%	–
TTCACCAGGGCCTCCATGTA (sugars e5 d10 e5, PS)	–	–	20%	–
TTCCACTCTTCTGACAGGTC (sugars e5 d10 e5, PS)	–	89% and 84%	–	–
TTCCCCAGAGCAGCTCTGAG (sugars e5 d10 e5, PS)	–	–	27%	–
TTCGGACCCACTGTGACCTC (sugars e3 d14 e3, PS)	–	–	64%	–
TTCTGGAACTTCTTCTGGAC (sugars e5 d10 e5, PS)	–	–	37%	–
TTCTGTGGCCTCTGTGCTGA (sugars e5 d10 e5, PS)	–	–	25%	–
TTCTTGCCAGGCATGGAGCT (sugars e5 d10 e5, PS)	–	–	54%	–
TTCTTTTAAATAACCCACAG (sugars e5 d10 e5, PS)	–	–	8%	–
TTGGTCTTTTTGGCTGCCCT (sugars e5 d10 e5, PS)	–	85% and 82%	–	–
TTGTACACTTCATTCTCTCC (sugars e5 d10 e5, PS)	37%	84%	–	–
TTGTCCTGGTCCCAGTACTT (sugars e5 d10 e5, PS)	68%	88%	–	–
TTTCCACTCTTCTGACAGGT (sugars e5 d10 e5, PS)	77% and 69%	93% and 92%	–	–
TTTCGGACCCACTGTGACCT (sugars e2 d13 e5, PS)	–	–	68%	–
TTTCGGACCCACTGTGACCT (sugars e3 d14 e3, PS)	–	–	61%	–
